From patent publication US20250326814A1, “MODIFIED OXYNTOMODULIN AND METHODS OF USE THEREOF” (OPKO BIOLOGICS LTD., priority 2024, published 2025) come the findings set out here.

Starred links: 1 amine or outer side, 2 acyl side, 3 side chain; linkers in the order of their positions; H or OH if unused. Non-standard residues stand in square brackets, D forms with d. Residues, ends and D or L forms follow the SMILES beside them. Groups on a side chain read outwards from the residue. *: point of attachment. C20 diacid = O=C(O)CCCCCCCCCCCCCCCCCCC(=O)*; γGlu = O=C(O)[C@H](CCC(=O)[*:2])N[*:1]; AEEA = NCCOCCOCC(=O)O; Aib = CC(C)(N)C(=O)O

A word on the EC50: it is the concentration giving half of the maximal effect.

Data set [1] has as its target T1, glucagon-like peptide-1 (GLP1) receptor (Homo sapiens, UniProt P43220).
T1 construct: expressed in transfected cells; host or cells: CHO-K1
In words: GLP-1 activity EC50 of OXM analogs and GLP-1 therapeutics (Example 4, Table 9). To be noted: Example 4; read-out: GLP-1 activity (EC50). It is filed as cell-based.
Description: The potencies of the modified OXM analogs newly disclosed in the present application, the OXM Analog alone, and the PEGylated OXM analog were examined and compared by measuring the EC50 of both receptors, glucagon-like peptide-1 (GLP1) and glucagon (GCGR).

Data set [2] deals with T2, GLP1 (Homo sapiens, UniProt P43220). In words: CBA potency assay, GLP1 (Tables 10 and 11). It is filed as cell-based.
T2 sequence (P43220 24-463): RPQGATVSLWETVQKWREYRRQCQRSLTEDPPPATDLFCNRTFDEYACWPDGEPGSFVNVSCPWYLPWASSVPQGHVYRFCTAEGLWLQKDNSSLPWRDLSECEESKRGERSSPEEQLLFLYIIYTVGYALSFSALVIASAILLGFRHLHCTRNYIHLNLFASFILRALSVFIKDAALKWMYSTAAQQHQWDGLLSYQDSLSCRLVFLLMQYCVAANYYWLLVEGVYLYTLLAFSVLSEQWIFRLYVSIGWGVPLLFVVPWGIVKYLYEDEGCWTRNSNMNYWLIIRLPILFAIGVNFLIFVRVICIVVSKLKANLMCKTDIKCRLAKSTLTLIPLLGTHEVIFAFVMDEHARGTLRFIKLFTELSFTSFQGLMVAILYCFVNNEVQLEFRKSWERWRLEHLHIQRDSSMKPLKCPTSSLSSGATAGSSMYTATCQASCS
Description: (§1) The impact of the longevity-enabling molecule (PEG Vs. FA-peptide/binder complex) on the peptide potency was studied.
Data set [3] has as its target T3, GCGR (Homo sapiens, UniProt P47871). As to the kind of experiment: CBA potency assay, GCGR (Tables 10 and 11). The class given is cell-based.
Description: as §1
Data set [4] deals with T2, GLP1. In words: GLP-1 activity in vitro of PEGylated and acylated OXM peptide analogs (Table 12). The class given is cell-based.
Protocol: (§2) The potential benefits of novel acylated OXM products relative to the PEGylated OXM peptide were evaluated for GLP-1 and Glucagon activity in vitro, molecular weight, dosing, and efficacy in a DIO Mouse model.
(§3) The potency of the acylated OXM peptides was compared with the native OXM peptide alone and Pegylated OXM peptide to evaluate the impact of acylation on GLP-1 and Glucagon activities.
Data set [5] concerns the target T3, GCGR. In words: Glucagon activity in vitro of PEGylated and acylated OXM peptide analogs (Table 12). It is filed as cell-based. To be noted: for GCGR/GLP-1R: ratio of EC50 activity.
Protocol: as §2, §3
The next data set relates to DIO mice. In words: Weight loss in DIO mice with OPK-88604 and OPK-88006, 30 nmoles/kg. It is filed as in vivo. To be noted: vs placebo. The method, then:
The animals were individually weighed and analyzed for lipid and cholesterol levels prior to treatment and following completion of the study. The levels of fasting glucose and insulin levels were analyzed, and oral glucose tolerance test was performed and compared between groups The levels of plasma triglycerides and cholesterol were evaluated at the end of study and compared to base levels prior to treatment. Levels of total cholesterol, triglycerides and glycogen were also examined at the end of study. Histology of liver was used to analyze for lipid droplets in the liver. All tests were conducted using routine methods known in the art.
DIO mice with weights of around 55 grams were divided into three groups and treated with placebo, 30 nmoles/kg of OPK-88604, or 30 nmoles/kg of OPK-88006 for 4 weeks. The animals were weighed daily for the period of treatment.

Data set [6] in a line: Viscosity of the formulated PEGylated OXM product. The class given is physicochemical.

T3 sequence (P47871 26-477): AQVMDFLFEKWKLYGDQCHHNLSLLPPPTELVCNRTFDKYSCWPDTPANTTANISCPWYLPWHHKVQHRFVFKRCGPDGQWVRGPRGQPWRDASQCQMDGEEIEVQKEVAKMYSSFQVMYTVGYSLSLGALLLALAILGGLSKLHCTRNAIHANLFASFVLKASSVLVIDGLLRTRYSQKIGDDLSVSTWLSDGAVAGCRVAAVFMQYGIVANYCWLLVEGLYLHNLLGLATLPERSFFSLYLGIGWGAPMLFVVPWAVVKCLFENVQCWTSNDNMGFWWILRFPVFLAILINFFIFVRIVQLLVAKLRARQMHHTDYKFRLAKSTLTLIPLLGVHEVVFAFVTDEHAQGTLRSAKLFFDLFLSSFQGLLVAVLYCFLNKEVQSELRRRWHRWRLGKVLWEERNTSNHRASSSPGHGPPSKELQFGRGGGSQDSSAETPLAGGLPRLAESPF
T1 sequence (P43220 24-463): as the sequence (P43220 24-463) above

On to `CC[C@H](C)[C@H](NC(=O)[C@H](CC(N)=O)NC(=O)[C@H](CC(N)=O)NC(=O)[C@H](CCCNC(=N)N)NC(=O)[C@H](CC(N)=O)NC(=O)[C@H](CCCNC(=N)N)NC(=O)CNC(=O)C(C)(C)NC(=O)[C@H](CC(N)=O)NC(=O)[C@H](CC(C)C)NC(=O)[C@H](CC(C)C)NC(=O)[C@H](Cc1c[nH]c2ccccc12)NC(=O)[C@H](CCC(N)=O)NC(=O)[C@@H](NC(=O)[C@H](Cc1ccccc1)NC(=O)[C@H](CCC(=O)O)NC(=O)[C@H](CCC(N)=O)NC(=O)[C@H](C)NC(=O)[C@H](CCCCN)NC(=O)[C@H](CCCCN)NC(=O)[C@H](CO)NC(=O)[C@H](CC(=O)O)NC(=O)[C@H](CC(C)C)NC(=O)[C@H](Cc1ccc(O)cc1)NC(=O)[C@H](CCCCN)NC(=O)[C@H](CO)NC(=O)[C@H](Cc1ccc(O)cc1)NC(=O)[C@H](CC(=O)O)NC(=O)[C@H](CO)NC(=O)[C@@H](NC(=O)[C@H](Cc1ccccc1)NC(=O)[C@@H](NC(=O)CNC(=O)[C@H](CCC(N)=O)NC(=O)C(C)(C)NC(=O)[C@@H](N)Cc1c[nH]cn1)[C@@H](C)O)[C@@H](C)O)C(C)C)C(=O)N[C@@H](C)C(=O)N[C@@H](CS)C(=O)N[C@@H](CS)C(N)=O` [OPK-88003 KPI], for which the EC50 was 0.105 nM in data set [1]; 0.127 nM on GLP1 [2] (Table 10); 0.187 nM on GLP1 [2] (Table 11, + HSA); 0.201 nM on GLP1 [2] (Table 11, without HSA); 0.6 nM at GCGR [3] (Table 10); 1.06 nM on GCGR [3] (Table 11, + HSA). Moreover, the EC50 at GCGR [3] (Table 11, without HSA) was 1.37 nM; at GLP1 [4], 0.0168 nM; on GCGR [5] it was 0.0731 nM. Besides, the “% EC50 compare to KPI (GLP1)” value at GLP1 [2] (Table 10) is given as 100%; at GLP1 [2] (Table 11, + HSA), 107%; at GLP1 [2] (Table 11, without HSA), 100%. In addition, the “% EC50 compare to KPI (GCGR)” value worked out at 100% at GCGR [3] (Table 10); 129% on GCGR [3] (Table 11, + HSA); 100% on GCGR [3] (Table 11, without HSA). Besides, the “EC50 ratio (GCGR\GLP-1R)” value was determined as 4.7 on GCGR [3] (Table 10); 5.7 at GCGR [3] (Table 11, + HSA); 6.8 at GCGR [3] (Table 11, without HSA). The GCGR/GLP-1R at GCGR [5] was found to be 4.4.

On to `CC[C@H](C)[C@H](NC(=O)[C@H](CC(N)=O)NC(=O)[C@H](CC(N)=O)NC(=O)[C@H](CCCNC(=N)N)NC(=O)[C@H](CC(N)=O)NC(=O)[C@H](CCCNC(=N)N)NC(=O)CNC(=O)C(C)(C)NC(=O)[C@H](CC(N)=O)NC(=O)[C@H](CC(C)C)NC(=O)[C@H](CC(C)C)NC(=O)[C@H](Cc1c[nH]c2ccccc12)NC(=O)[C@H](CCC(N)=O)NC(=O)[C@@H](NC(=O)[C@H](Cc1ccccc1)NC(=O)[C@H](CCC(=O)O)NC(=O)[C@H](CCC(N)=O)NC(=O)[C@H](C)NC(=O)[C@H](CCCCN)NC(=O)[C@H](CCCCN)NC(=O)[C@H](CO)NC(=O)[C@H](CC(=O)O)NC(=O)[C@H](CC(C)C)NC(=O)[C@H](Cc1ccc(O)cc1)NC(=O)[C@H](CCCCN)NC(=O)[C@H](CO)NC(=O)[C@H](Cc1ccc(O)cc1)NC(=O)[C@H](CC(=O)O)NC(=O)[C@H](CO)NC(=O)[C@@H](NC(=O)[C@H](Cc1ccccc1)NC(=O)[C@@H](NC(=O)CNC(=O)[C@H](CCC(N)=O)NC(=O)C(C)(C)NC(=O)[C@@H](N)Cc1c[nH]cn1)[C@@H](C)O)[C@@H](C)O)C(C)C)C(=O)N[C@@H](C)C(=O)N[C@@H](CCCCNC(=O)COCCOCCNC(=O)COCCOCCNC(=O)CC[C@H](NC(=O)CCCCCCCCCCCCCCCCCCC(=O)O)C(=O)O)C(=O)NCC(N)=O` [Variant 5] (H-H[Aib]QGTFTSDYSKYLDSKKAQEFVQWLLN[Aib]GRNRNNIAK([AEEA-AEEA-γGlu-C20 diacid])G-NH2), for which the EC50 at GLP1 [4] was 0.019 nM. At GCGR [5], the 50% effective concentration (EC50) is 0.31 nM and the GCGR/GLP-1R is reported as 16.3. Besides, the “weight loss over 4 weeks (FIG. 41A, 41B)” value in the data set with DIO mice is recorded as “significant weight loss over 4 weeks”.

For the compound “OPK-88003 API: SEQ ID NO: 3 where Xaa38=Cys-PEG20 and Xaa39=Cys-PEG20”, the “viscosity of the formulated product” value in data set [6] is “high viscosity”.
